Consider two substances from US20090087870A1, “HEMATOLOGICAL ASSAY AND KIT” (DSM IP ASSETS B.V., priority 2002, published 2009).

Broadly, the Km is the concentration of substrate that gives half-maximal velocity.

In one assay the target is thrombin (Homo sapiens, UniProt P00734). Conditions: thrombin substrate, substrate-thrombin reaction; cited from earlier work.
The test system of assay [1] is thrombin formation in plasma samples from healthy volunteers and hemophilia A patients. Kind of assay: onset of thrombin formation in the inventive assay compared with the aPTT (onset of clotting by fibrin formation). It is filed as biochemical. As to conditions: 250 μmol/l substrate added to aPTT activation (aluminium silicate, phospholipids, CaCl2); 80 plasma samples; FIG. 11. The text has this: FIG. 11 compares the detection of the onset of coagulation by the Fibrin Formation method and by the inventive method. For this experiment 80 plasma samples from healthy volunteers and hemophilia A patients were clotted by the addition of a contact phase activator (aluminium silicate, Sigma, St. Louis, USA), phospholipids (rabbit brain cephalin, Pentapharm, Basle) and CaCl2 (Sigma, St. Louis, USA). This procedure is called “Activated Partial Thromboplastin time” (aPTT). The time from the start of the procedure till clotting is detected is the aPTT. The inventive assay was performed using the identical activation procedure as the aPTT. The difference between the two procedures was the addition of the fast chromogenic substrate • (H-D-CHG-Ala-Arg-pNa.2AcOH, 250 μmol/l, Pentapharm) and the fibrin polymerisation inhibitor H-Gly-Pro-Arg-Pro-OH AcOH (5 mg/ml, Pentapharm) in the inventive assay.

For the substance H-β-Ala-Gly-Arg-pNA°2AcOH, at thrombin, the Michaelis constant (Km) was 2000 µM.
On to H-D-CHG-Ala-Arg-pNa.2AcOH, for which the “effect on onset of thrombin formation” value in assay [1] is “delayed the onset of the thrombin formation”. Further, at thrombin, the Michaelis constant (Km) was 15.9 µM.
